This is an account of results in US4942163A, “1(2H)-isoquinolinones and 1-isoquinolineamines as cancer chemotherapeutic agents” (E. I. Du Pont de Nemours and Company, priority 1989, dated 1990).

≈ marks a conversion by molar mass, not a printed value.

Assay [1] relates to RPMI-7272 human melanoma cells. The assay is described as follows: In vitro RPMI-7272 human melanoma cell growth inhibition. The conditions noted are these: RPMI-7272 melanoma, inhibition of cell doublings by 50%, 72 h, read-out: ID50 (the source's name). The assay is classed as cell-based. The procedure: The compounds of this invention were also tested for their ability to inhibit the growth of human melanoma RPMI-7272 cells in vitro. Human melanoma RPMI-7272 cells (Quinn et al. [J. Natl. Cancer Inst. 59, 301-305 (1977)]) were propagated in RPMI-1640 medium supplemented with 10 mM Tricine (pH 7.8), 10 mM HEPES (pH 7.3), 0.075% sodium bicarbonate, and 10% (vol/vol) heat-inactivated (56° C., 30 minutes) fetal bovine serum in a 95% air:5% CO2 humidified atmosphere. Cells were seeded at 3×10^5 per 35 mm plate to initiate growth inhibition studies. Cultures to receive growth medium only (control cultures) were set up in quadruplicate; cultures to receive varying concentrations of compounds were set up at one dish per dose of compound. Twenty-four hours post-seeding, duplicate control cell cultures were trypsinized and cells were counted using a Coulter Counter (day 1 control counts). At this time, varying concentrations of test compounds, from 100 to 0.00001 μg/mL were added to cultures and growth medium only was added to control cultures. Seventy-two hours after the addition of compound, cells were trypsinized and counted. The numbers of cell population doublings (day 4) in the presence or absence of compound were calculated. The ID50 represents the dose of compound (in μg/mL) required to inhibit the number of cell doublings by 50%. A compound is considered to have in vitro activity against RPMI-7272 melanoma if it has an ID50 ≤1 μg/mL. The number of population doublings of control cultures during 72 hours was between 3 and 4. […] Dilutions to 1 mg/mL in complete growth medium were made, followed by stock preparations of 100 and 30 μg/mL in complete growth medium. Serial ten-fold dilutions in complete medium were formulated from the 100 and 30 μ g/mL stocks, respectively, and added to cultures.

A further assay has as its system B16 murine melanoma. Nature of the assay: B16 murine melanoma test (survival of tumor-bearing mice). The assay is classed as in vivo, mouse. To be noted: i.p. once daily for nine days from day 1. The procedure:
The B16 tumor line arose spontaneously in 1954 on the skin at the base of the ear of a C57BL mouse. The tumor line is maintained by serial passage in female C57BL mice. On day 0, female B6C3F1 mice are inoculated intraperitoneally with 0.5 mL of a 10% tumor brei. This brei is prepared by homogenizing fresh B16 tumors, grown subcutaneously in C57BL mice, in cold physiological saline. Mice are randomized in groups of ten each, with 20 animals being in the control group. The test compounds and vehicle control are administered intraperitoneally once daily for nine consecutive days beginning on day 1. A ≥20% decrease in body weight on day 5 is considered an indication of toxicity. The acceptable mean control survival time is 14-22 days. Results are expressed as a percentage of the mean survival time of the vehicle-treated control group according to the formula: [formula] Mice which survive 90 days are considered cured and are not included in the calculation of the mean survival time. The NCI criteria for activity are used. A compound is considered to have moderate activity against B16 melanoma if it has a % T/C ≥125%, and it is considered to have good activity if it has a % T/C ≥150%.

The next assay relates to L1210 murine leukemia. Nature of the assay: L1210 murine leukemia test (survival of tumor-bearing mice). The format is in vivo, mouse. The conditions noted are these: i.p. once daily for nine days from day 1. The procedure: The L1210 tumor line originated in 1948 as a lymphocytic leukemia in a female DBA/2 mouse after the skin was treated with 0.2% 20-methylcholanthrene in ethyl ether. The tumor line is maintained by serial passage in female DBA/2 mice. On day 0, female CDF1 mice weighing 18-22 g are inoculated with 1×10^5 L1210 leukemia cells harvested from the ascites of DBA/2 mice. The mice are randomized into groups of six each and the test compounds and vehicle control are administered intraperitoneally once daily for nine consecutive days beginning on day 1. A ≥20% decrease in body weight on day 5 is considered an indication of toxicity. The acceptable control mean survival time is 8-11 days. Results are expressed as a percentage of the mean survival time of the vehicle-treated control group according to the formula: [formula] Mice which survive for 30 days are considered cured and are not included in the calculation of the mean survival time. The NCI criteria for activity are used. A compound is considered to have moderate activity against L1210 leukemia if it has a % T/C ≥125%, and it is considered to have good activity if it has a % T/C ≥150%.

In another assay the test system is P388 murine leukemia. The assay is described as follows: P388 murine leukemia test (survival of tumor-bearing mice). The format is in vivo, mouse. To be noted: i.p. once daily for nine days from day 1. The protocol:
The P388 tumor line originated in 1955 as a lymphocytic leukemia in a female DBA/2 mouse after the skin was painted with 3-methylcholanthrene. The tumor line is maintained by serial passage in female DBA/2 mice. On day 0, female CDF1 mice weighing 18-22 g are inoculated intraperitoneally with 1×10^6 P388 leukemia cells harvested from the ascites of DBA/2 mice. The mice are randomized into groups of six each and the test compounds and vehicle control are administered intraperitoneally once daily for nine consecutive days beginning day 1. A decrease in body weight on day 5 that is ≥20% is considered an indication of toxicity. The acceptable control mean survival time is 9-14 days. Results are expressed as a percentage of the mean survival time of the vehicle-treated control group according to the formula: [formula] Mice which survive for 30 days are considered cured and are not included in the calculation of the mean survival time. The NCI criteria for activity are used. A compound is considered to have moderate activity against P388 leukemia if it has a % T/C ≥125%, and it is considered to have good activity if it has a % T/C ≥150%.

For assay [2], the system named is LOX human amelanotic melanoma. The assay is described as follows: LOX human amelanotic melanoma xenograft test in athymic nude mice. The conditions noted are these: for % T/C (median survival time vs vehicle control): i.p. every fourth day, three injections. The format is in vivo. The source says: The LOX human amelanotic melanoma tumor line was obtained from Dr. Oystein Fodstad, Department of Biochemistry, Norwegian Radium Hospital, Oslo, Norway. The line is maintained by serial passage in athymic NCR-NU mice. On day 0, athymic nude mice, all of one sex weighing a minimum of 18 g for males and 17 g for females, are inoculated intraperitoneally with 1×10^6 LOX melanoma cells harvested from the ascites of athymic mice. The mice are randomized into groups of six each and the test compounds and vehicle control are administered intraperitoneally every fourth day beginning day 1 for a total of three injections. Animals are evaluated for toxicity on day 10. A decrease in body weight ≥20% is considered an indication of toxicity. The acceptable control median survival time is 17-24 days. Results are expressed as a percentage of the median survival time of the vehicle-treated control group according to the formula: [formula]
The NCI criteria for activity are used. A compound is considered to have moderate activity against LOX melanoma if it has a % T/C ≥140%, and it is considered to have good activity if it has a % T/C ≥200%.

For `Nc1nc(-c2cccc3ccccc23)cc2ccccc12` [Example 16], the IC50 in assay [1] was 0.22 µg/mL (≈ 0.814 µM). The same measure, in the same setting: the figure for `Nc1nc(-c2cccc3ccccc23)cc2cccc(Cl)c12` [Example 23] is 0.07 µg/mL (≈ 0.23 µM). On to `Cc1cccc2cc(-c3cccc4ccccc34)[nH]c(=O)c12` [Example 15], for which the IC50 in assay [1] is 0.53 µg/mL (≈ 1.86 µM). On the same count and under the same terms, the figure for `Cc1cccc2cc(-c3cccc4ccccc34)nc(N)c12` [Example 24] is 0.05 µg/mL (≈ 0.176 µM). Turning to `Nc1nc(-c2cccc3ccccc23)cc2ccc(Cl)cc12` [Example 21, 7-Chloro-3-(1-naphthalenyl)-1-isoquinolineamine], the “% T/C (mean survival time vs vehicle control)” value in the assay with B16 murine melanoma (dose 100 mg/kg) is given as 138%. Besides, in assay [1], the IC50 came to 0.0094 µg/mL (≈ 0.0308 µM). As to `Cc1ccc2cc(-c3cccc4ccccc34)nc(N)c2c1` [Example 22], in assay [1], the IC50 is 0.0016 µg/mL (≈ 0.00563 µM). Consider `CN(C)c1ccc2cc(-c3cccc4ccccc34)[nH]c(=O)c2c1.Cl` [Example 4, 7-(Dimethylamino)-3-(1-naphthalenyl)-1(2H)-isoquinolinone hydrochloride], for which the “% T/C (mean survival time vs vehicle control)” value with L1210 murine leukemia (dose 6 mg/kg) amounted to 156%. For the same compound, in assay [1], the IC50 is 0.001 µg/mL. `Cc1cccc2c(N)nc(-c3cccc4ccccc34)cc12` [Example 18]: in assay [1], the IC50 is 0.95 µg/mL (≈ 3.34 µM).

As for `Cc1ccc2cc(-c3cccc4ccccc34)nc(N3CCN(C)CC3)c2c1` [Example 31, 7-Methyl-1-(4-methyl-1-piperazinyl)-3-(1-naphthalenyl)-isoquinoline], the “% T/C (mean survival time vs vehicle control)” value in the assay with B16 murine melanoma (dose 6 mg/kg) came out at 133%. For the compound `O=c1[nH]c(-c2cccc3ccccc23)cc2ccccc12` [Example 1, 3-(1-Naphthalenyl)-1(2H)-isoquinolinone], the “% T/C (mean survival time vs vehicle control)” value in the assay on P388 murine leukemia (dose 200 mg/kg) turned out to be 161%. In addition, in assay [2] (dose 400 mg/kg), the “Cures (number of survivors/total at 60 days)” value is 1/6 and the “% T/C (median survival time vs vehicle control)” value is on record as 168%. The “% T/C (mean survival time vs vehicle control)” value in the assay with L1210 murine leukemia (dose 100 mg/kg) was 148%. Take `Cc1ccc2c(N)nc(-c3cccc4ccccc34)cc2c1` [Example 20, 6-Methyl-3-(1-naphthalenyl)-1-isoquinolineamine]: in the assay on B16 murine melanoma (dose 6 mg/kg), the “% T/C (mean survival time vs vehicle control)” value amounted to 130%. Moreover, the IC50 in assay [1] worked out at 0.00077 µg/mL (≈ 0.00271 µM). As for `C[N+](C)(C)c1ccc2cc(-c3cccc4ccccc34)[nH]c(=O)c2c1` [Example 5], the IC50 in assay [1] worked out at 0.055 µg/mL. The same measure, in the same setting: the value for `Nc1nc(-c2cccc3ccccc23)cc2cc(Cl)ccc12` [Example 19] was 0.055 µg/mL (≈ 0.18 µM); that for `Cc1cccc2c(=O)[nH]c(-c3cccc4ccccc34)cc12` [Example 7] was 0.29 µg/mL (≈ 1.02 µM). Consider `O=c1[nH]c(-c2cccc3ccccc23)cc2ccc(Cl)cc12` [Example 2, 7-chloro-3-(1-naphthalenyl)-1(2H)-isoquinolinone], for which the “% T/C (mean survival time vs vehicle control)” value in the assay with P388 murine leukemia (dose 100 mg/kg) amounted to 138%. In assay [1], the IC50 stood at 0.005 µg/mL (≈ 0.0164 µM). For the compound `Cc1ccc2cc(-c3cccc4ccccc34)nc(N(C)CCN(C)C)c2c1` [Example 40, N,N,N'-Trimethyl-N'-(7-methyl-3-(1-naphthalenyl)-1-isoquinolinyl)-1,2-ethanediamine], the “% T/C (mean survival time vs vehicle control)” value in the assay on B16 murine melanoma (dose 0.75 mg/kg) is 135%. For `Cc1ccc2cc(-c3cccc4ccccc34)[nH]c(=O)c2c1` [Example 3, 7-Methyl-3-(1-naphthalenyl)-1(2H)-isoquinolinone], the results for the “% T/C (mean survival time vs vehicle control)” value in the assay with P388 murine leukemia (dose 100 mg/kg), in the assay with B16 murine melanoma (dose 100 mg/kg) and with L1210 murine leukemia (dose 200 mg/kg) were 152%, 149% and 133%, respectively. Moreover, the “Cures (number of survivors/total at 60 days)” value in assay [2] (dose 240 mg/kg) is listed as 2/6. Besides, the “% T/C (median survival time vs vehicle control)” value in assay [2] (dose 240 mg/kg) amounted to 271%. Moreover, in assay [1], the IC50 stood at 0.0072 µg/mL (≈ 0.0252 µM). On to `Cc1ccc2c(=O)[nH]c(-c3cccc4ccccc34)cc2c1` [Example 9], for which the IC50 in assay [1] turned out to be 0.0016 µg/mL (≈ 0.00561 µM).
